Assay results from patent US20230210757A1, “IMPROVEMENTS IN OR RELATING TO ORGANIC COMPOUNDS” (Givaudan SA, priority 2020, published 2023).

How the values were obtained:
[1] = tested on: pigmented ageing spots on face; assay: Clinical test, pigmented spots on face of Asian volunteers, VISIA ageing spot analysis; format: in vivo, human; details: cream 0.3% twice daily
Experimental: (§1) The study was a double-blind, randomized and placebo controlled study. The assessment was based on an inter-subject comparison between the results obtained with cream HEX at 3% (active product), cream Phenylethyl resorcinol at 0.3% and the cream placebo. The measurements were taken in controlled-atmosphere at a temperature of 21±1° C. and a humidity of 50±10%. This study was performed on 72 volunteers (healthy Asian woman aged from 45 to 85 years), having pigmented ageing spots on their faces.
The study was carried out on 2 groups of 36 volunteers each (72 volunteer in total). A cream formula was applied twice daily on face. Evaluation was carried out before treatment and after 28 and 56 days. Group 1 has applied placebo on one side of the face and HEX at 3% on the other side of the face Group 2 has tested HEX at 3% on one side of the face versus Phenylethyl Resorcinol at 0.3% on the other side of the face. […]
Under standard light, visible spots can be evaluated, in particular by visualisation of brown or red skin lesions including freckles, acne scars, hyper-pigmentation and vascular lesions. With cross polarized light in combination with Canfield's RBX® Technology brown spots can be evaluated, in particular by analysis of subsurface melanin conditions. […] The results are given in number of lesions, which is a count of lesions detected by the device, regardless of their size or intensity.

[2] = tested on: hyperpigmentation spots on face; assay: Clinical test, hyperpigmented spots on face of African volunteers, Mexameter analysis; format: in vivo, human
Experimental: The measurement is based on the absorption principle. The MEXAMETER MX 18 probe emits radiation of three defined wavelengths. A receiver measures the reflection of the light reflected by the skin. The position of the transmitter and receiver ensures that only diffuse light is measured. With a defined amount of emitted light the amount of light absorbed by the skin can be calculated. Melanin is measured by two wavelengths. The wavelengths were chosen according to the different absorption peaks of the melanin pigments. For the measurement of erythema (redness of skin), two different wavelengths are used to measure the absorption capacity of the epidermis. One of them corresponds to the absorption spectrum of haemoglobin. The other wavelength was chosen in order to have other pigments influencing the colour of the skin.
The study was a double-blind, randomized and placebo controlled study. The assessment was based on an inter-subject comparison between the results obtained with cream HEX at 3% (active product), cream Phenylethyl resorcinol at 0.3% and the cream placebo. The measurements were taken in controlled-atmosphere at a temperature of 20° C. and a humidity of 40%. This study was performed on 70 volunteers (aged from 19 to 57 years, having hyperpigmentation spots on their faces.
The study was carried out on 3 groups. A cream formula was applied twice daily on full face. Evaluation was carried out before treatment and after 28 and 56 days. Groups 1 and 2, with 25 volunteers each, have applied placebo and HEX at 3%, respectively, and group 3 with 20 volunteers has applied Phenylethyl Resorcinol at 0.3%.

[3] = tested on: skin explants (Caucasian, Asian, African); assay: Ex vivo whitening efficacy on skin explants (Fontana Masson staining, expert scoring of basal cells); format: cell-based, human; details: topical daily 14 days, vs untreated, extract 3%, Phenylethyl resorcinol 0.5%, hydroquinone 2%
Experimental: Skin fragments from 3 Asian, 3 African and 3 Caucasian subjects were cut into 1 cm^2 pieces and washed three times using antibiotics. Subcutaneous fat and lower dermis were mechanically removed under a stereomicroscope using a surgical scalpel. Skin biopsies were placed with the epithelium uppermost at an air/liquid interface on culture inserts (filter pore size 12 μm; Costar, VWR International, Fontenay-sous-Bois, France). These inserts were set on twelve wells plate for 14 days at 37° C. in a humidified incubator with 5% CO2. Medium was added to the wells so that the surface of the medium was levelled with the filter. Organ cultures were conserved with Dulbecco's […] (Invitrogen Corporation, Paisley, UK) containing antibiotic, L-glutamine, bovine pituitary extract, growth factors and fetal calf serum (DAP, Neuf-Brisach, France). […] elongata extract 3% (unpurified extract), Phenylethyl resorcinol 0.5% and hydroquinone 2% (SIGMA H9003) as positive control were topically applied daily during 14 days on the epidermis of the skin fragments, in comparison with untreated skin. […] For testing the depigmentation product, the melanin pigment present in the melanocytes and in the contiguous keratinocytes of the basal cell layer of the epidermis from treated skin in comparison with untreated skin is evaluated. Samples were formalin-fixed at day 14 and paraffin-embedded Sections (4 μm) were then stained by Fontana Masson silver method for melanin (see example 4iii). A quantitative numeration of cells containing melanin pigments was made under an optical microscope at ×40 magnification on about 300 basal cells of the epidermis, Two types of cells were counted: • score 1: unpigmented cells or cells presenting rare melanin pigments isolated in the cytoplasm • score 3: cells presenting important melanin pigment in all over the cytoplasm Epidermal melanin content was calculated as the percentage of the epidermal cells in each scoring.

[4] = tested on: pigmented ageing spots on hands; assay: Clinical test, pigmented spots on hands of Caucasian volunteers, Mexameter analysis; format: in vivo, human; details: cream 0.3% twice daily
Experimental: The study was a double-blind, randomized and placebo controlled study. The assessment was based on an intra-subject comparison between the results obtained with cream HEX at 3% (active product), cream Phenylethyl resorcinol at 0.3% and the cream placebo. The measurements were taken in controlled-atmosphere at a temperature of 21±1° C. and a humidity of 50*10%. This study was performed on 39 volunteers (healthy Caucasian woman aged from 50 to 75 years, mean age: 61.7±5.6 years) having pigmented ageing spots on their hands.
The study was carried out on 2 groups of around 20 volunteers each (39 volunteer in total aged from […]). A cream formula was applied twice daily on hands. Evaluation was carried out before treatment and after 28 and 56 days. Group 1 has applied placebo on one hand and HEX at 3% on the other hand, and group 2 has tested HEX at 3% on one hand versus Phenylethyl Resorcinol at 0.3% on the other hand.
The measurement is based on the absorption principle. The MEXAMETER MX 18 probe emits radiation of three defined wavelengths. A receiver measures the reflection of the light reflected by the skin. The position of the transmitter and receiver ensures that only diffuse light is measured. With a defined amount of emitted light the amount of light absorbed by the skin can be calculated. Melanin is measured by two wavelengths. […]

[5] = tested on: pigmented ageing spots on face; assay: Clinical test, face of Asian volunteers, spectrocolorimeter measurement; format: in vivo, human; details: HEX cream 3% or Phenylethyl resorcinol cream 0.3% twice daily, after 28 and 56 days
Experimental: as §1
The study was carried out on 2 groups of 36 volunteers each (72 volunteer in total). A cream formula was applied twice daily on face. Evaluation was carried out before treatment and after 28 and 56 days. Group 1 has applied placebo on one side of the face and HEX at 3% on the other side of the face Group 2 has tested HEX at 3% on one side of the face versus Phenylethyl Resorcinol at 0.3% on the other side of the face.
Skin colorimetric measurement was done with a MINOLTA CM700-d Spectrophotometer® equipped with a 8 mm diameter head. The Spectrophotometer® converts colours perceived by human to a digital code composed of three parameters:
L*: for clarity (from dark to light),
a*: for the green-to-red spectrum,
b*: for the blue-to-yellow spectrum.
a* and b* are chrominance parameters and L* is a luminance parameter. […]

CC(c1ccccc1)c1ccc(O)cc1O (centres unmarked) [Phenylethyl resorcinol, phenylethyl resorcinol]
reduction of brown spots compared with HEX [1]: slightly better than HEX
reduction of visible spots compared with HEX at 3% [1]: efficacy very close to those obtained with HEX at 3%
change of melanin content relative to D0 ([2]; HEX cream 3% or Phenylethyl Resorcinol cream 0.3% twice daily, after 56 days): not maintained after 56 days
change of melanin content relative to D0 ([2]; cream 0.3% twice daily, after 28 days): −2.1%
change of melanin content versus placebo ([2]; cream 0.3%, after 28 days): −4.3%
change of percentage of unpigmented cells ([3]; African skin explants): +91.7%
change of percentage of very pigmented cells ([3]; African skin explants): −22.7%
change of percentage of unpigmented cells ([3]; Asian skin explants): +110.7%
change of percentage of very pigmented cells ([3]; Asian skin explants): −29.2%
change of percentage of unpigmented cells ([3]; Caucasian skin explants): +38.8%
change of percentage of very pigmented cells ([3]; Caucasian skin explants): −4.2%
reduction of skin redness compared with placebo [4]: same efficacy as what we obtained with the placebo
melanin reduction efficacy compared with HEX at 3% ([4]; 28 and 56 days): Same melanin reduction efficacy as with HEX at 3%
b* parameter on face pigmented spots area [5]: significant reduction of b* parameter

Oc1ccc(O)cc1 [Hydroquinone, hydroquinone]
change of percentage of unpigmented cells ([3]; African skin explants): didn't show any significant results
change of percentage of very pigmented cells ([3]; African skin explants): didn't show any significant results
change of percentage of unpigmented cells ([3]; Asian skin explants): +54.1%
change of percentage of very pigmented cells ([3]; Asian skin explants): −25.8%
change of percentage of unpigmented cells ([3]; Caucasian skin explants): didn't show any significant impact
change of percentage of very pigmented cells ([3]; Caucasian skin explants): didn't show any significant impact
